Assay results as given in patent US6410054B1, “Immediate release eplerenone compositions” (G. D. Searle & Co., priority 1998, dated 2002).

Experiments:
[1] = Single dose study: plasma pharmacokinetics of eplerenone, open lactone ring form, spironolactone
Experimental: The pharmacokinetics, safety and antialdosterone activity of single 10, 50, 100, 300 and 1000 mg oral doses of eplerenone were evaluated in a single-center, randomized, double-blind, placebo-controlled study.
The study employed seven parallel dose groups of eight healthy male humans.
The eplerenone capsules administered corresponded to the capsules (or combinations of the capsules) disclosed in Examples 4, 5, 7 and 8 above. The placebo was a conventional capsule containing lactose. […] The fludrocortisone used in the study consisted of commercially available fludrocortisone tablets (Florinef®, Squibb BV).
The subjects, who underwent a ten hour food fast prior to administration of the dose, received a single oral dose of one of the study medications together with about 180 mL of water at 0800 hours. […] Each dose of fludrocortisone was administered with 150 mL of water except for the 1.0 mg dose which was administered with 200 mL of water.
The plasma samples collected from subjects dosed with eplerenone were assayed for concentrations of eplerenone and the open lactone ring form of eplerenone. […] A subset of plasma samples was also assayed for testosterone levels. The urine collected was analyzed to determine concentrations and amounts of eplerenone and the open lactone ring form of eplerenone, the amount of sodium and potassium excreted, and the urinary log10 (sodium/potassium) ratio.

[2] = ADME study of [14C]eplerenone oral solution: plasma, whole blood, saliva pharmacokinetics; assay type: in vivo, humans; settings: for Total Radioactivity AUC0-inf (± SEM) / Total Radioactivity Cmax (± SEM): 100 mg [14C]eplerenone oral solution
Experimental: (§1) An open-label, single dose study was employed to evaluate the absorption, distribution, metabolism and elimination profile of a single 100 mg dose of an oral solution of eplerenone.
(§2) The study employed eight healthy male humans. Each subject received a single 100 mg oral dose of a solution of [^14C]eplerenone (specific activity 0.75 μCi/mg). Plasma, saliva, breath, urine and fecal samples were collected at predetermined intervals and analyzed for sample radioactivity and the concentration of eplerenone and its open lactone ring form. Safety was determined on the basis of laboratory tests, vital signs, and the occurrence and types of adverse events.
(§3) The subjects, who underwent an overnight food fast prior to administration of the dose, received at 0800 hours a single 100 mg oral dose of an aqueous oral solution of radiolabeled eplerenone reconstituted in 80 mL of an apple juice/hydroxypropyl-β-cyclodextrin mixture. The subjects swallowed about 200 mL of water one, two and three hours post dosing.
(§4) Blood samples were collected at −0.5 (predose), 0.5, 1, 1.5, 2, 2.5, 3, 4, 6, 8, 12, 16, 24, 36, 48, 72 and 96 hours post dose. […] Individual fecal samples were collected beginning immediately after dosing and continuing through 0800 hours on day 8. In addition, one predose fecal sample was provided. Saliva samples were taken at 0.5 hour predose and at 0.5, 1, 2, 4, 6, 12, and 24 hours postdose. Breath samples were taken at 0.5 hour predose and at 1, 2, 3, 4, 6, 8, 12, 24, 36, 48 and 72 hours postdose.

[3] = ADME study of [14C]eplerenone oral solution: excretion in urine, feces, breath; assay type: in vivo, humans
Experimental: as §1, §2, §3, §4

[4] = male, human, plasma, po, 300 mg
[5] = male, human, plasma, po, 1000 mg
[6] = male, human, plasma, 100 mg eplerenone oral solution, single dose
[7] = 100 mg [14C]eplerenone oral solution
[8] = 100 mg [14C]eplerenone oral solution, mean

Q: With `COC(=O)C1CC2=CC(=O)CCC2(C)C23OC2CC2(C)C(CC[C@@]24CCC(=O)O4)C13` (stereo partly drawn) [eplerenone, methyl hydrogen 9,11α-epoxy-17α-hydroxy-3-oxopregn-4-ene-7α,21-dicarboxylate, γ-lactone] as the molecule, how does the concentration at 0.5 h [1, 4] read?
A: 1620 ng/mL

Q: What about the concentration at 1 h [1, 4] of the same molecule?
A: 2680 ng/mL

Q: And the concentration at 2 h [1, 4]?
A: 2780 ng/mL

Q: What about the concentration at 3 h [1, 4] of the same molecule?
A: 2220 ng/mL

Q: What about the concentration at 4 h [1, 4] of the same molecule?
A: 1950 ng/mL

Q: What about the concentration at 6 h [1, 4] of the same molecule?
A: 1270 ng/mL

Q: And the concentration at 8 h [1, 4]?
A: 843 ng/mL

Q: And the concentration at 12 h [1, 4]?
A: 333 ng/mL

Q: What about the concentration at 16 h [1, 4] of the same molecule?
A: 142 ng/mL

Q: What about the concentration at 24 h [1, 4] of the same molecule?
A: 38.3 ng/mL

Q: What about the concentration at 28 h [1, 4] of the same molecule?
A: 21.1 ng/mL

Q: And the concentration at 32 h [1, 4]?
A: 11.3 ng/mL

Q: And the concentration at 48 h [1, 4]?
A: 1.7 ng/mL

Q: What about the concentration at 72 h [1, 4] of the same molecule?
A: 0 ng/mL

Q: And the concentration at 96 h [1, 4]?
A: 0 ng/mL

Q: What about the half-life [1, 4] of the same molecule?
A: 3.7 h

Q: And the AUC(0-t) [1, 5]?
A: 56400 ng·h/mL

Q: And the Cmax [1, 5]?
A: 7260 ng/mL

Q: What about the MRT [1, 5] of the same molecule?
A: 7 h

Q: And the Tmax [1, 5]?
A: 2.5 h

Q: What about the concentration at 0.5 h [1, 5] of the same molecule?
A: 3180 ng/mL

Q: What about the concentration at 1 h [1, 5] of the same molecule?
A: 5260 ng/mL

Q: What about the concentration at 2 h [1, 5] of the same molecule?
A: 5940 ng/mL

Q: What about the concentration at 3 h [1, 5] of the same molecule?
A: 6810 ng/mL

Q: What about the concentration at 4 h [1, 5] of the same molecule?
A: 6220 ng/mL

Q: What about the concentration at 6 h [1, 5] of the same molecule?
A: 4150 ng/mL

Q: And the concentration at 8 h [1, 5]?
A: 2830 ng/mL

Q: And the concentration at 12 h [1, 5]?
A: 1340 ng/mL

Q: And the concentration at 16 h [1, 5]?
A: 647 ng/mL

Q: And the concentration at 24 h [1, 5]?
A: 208 ng/mL

Q: What about the concentration at 28 h [1, 5] of the same molecule?
A: 107 ng/mL

Q: And the concentration at 32 h [1, 5]?
A: 61.7 ng/mL

Q: What about the concentration at 48 h [1, 5] of the same molecule?
A: 22.3 ng/mL

Q: And the concentration at 72 h [1, 5]?
A: 1.4 ng/mL

Q: And the concentration at 96 h [1, 5]?
A: 0 ng/mL

Q: What about the half-life [1, 5] of the same molecule?
A: 15.1 h

Q: And the “relationship between eplerenone dose and plasma concentration” value ([1]; single 10-1000 mg oral doses)?
A: linear relationship

Q: What about the “concentration of total radioactivity” value ([2]; 1.5 hour plasma samples, mean) of the same molecule?
A: 2390 ng/mL

Q: And the “Total Radioactivity AUC0-inf (± SEM)” value ([2]; Plasma)?
A: 18400 ± 1200 ng equivalents hr/mL

Q: What about the “Total Radioactivity Cmax (± SEM)” value ([2]; Plasma) of the same molecule?
A: 2490 ± 110 ng equivalents/mL

Q: And the “Total Radioactivity AUC0-inf (± SEM)” value ([2]; Saliva)?
A: 7960 ± 500 ng equivalents hr/mL

Q: And the “Total Radioactivity Cmax (± SEM)” value ([2]; Saliva)?
A: 2170 ± 280 ng equivalents/mL

Q: What about the “Total Radioactivity AUC0-inf (± SEM)” value ([2]; Whole Blood) of the same molecule?
A: 12800 ± 800 ng equivalents hr/mL

Q: What about the “Total Radioactivity Cmax (± SEM)” value ([2]; Whole Blood) of the same molecule?
A: 1770 ± 80 ng equivalents/mL

Q: And the concentration at 0.5 h ([2]; male, human, plasma, 100 mg oral solution of [14C]eplerenone, 0.5 hours after dosing)?
A: 1340 ng/mL

Q: What about the concentration at 1 h ([2]; male, human, plasma, 100 mg oral solution of [14C]eplerenone, 1.0 hours after dosing) of the same molecule?
A: 1620 ng/mL

Q: What about the concentration at 1.5 h ([2]; male, human, plasma, 100 mg oral solution of [14C]eplerenone, 1.5 hours after dosing) of the same molecule?
A: 1590 ng/mL

Q: And the concentration at 2 h ([2]; male, human, plasma, 100 mg oral solution of [14C]eplerenone, 2.0 hours after dosing)?
A: 1420 ng/mL

Q: What about the concentration at 2.5 h ([2]; male, human, plasma, 100 mg oral solution of [14C]eplerenone, 2.5 hours after dosing) of the same molecule?
A: 1260 ng/mL

Q: And the concentration at 3 h ([2]; male, human, plasma, 100 mg oral solution of [14C]eplerenone, 3.0 hours after dosing)?
A: 1180 ng/mL

Q: What about the concentration at 4 h ([2]; male, human, plasma, 100 mg oral solution of [14C]eplerenone, 4.0 hours after dosing) of the same molecule?
A: 1000 ng/mL

Q: And the concentration at 6 h ([2]; male, human, plasma, 100 mg oral solution of [14C]eplerenone, 6.0 hours after dosing)?
A: 596 ng/mL

Q: And the concentration at 8 h ([2]; male, human, plasma, 100 mg oral solution of [14C]eplerenone, 8.0 hours after dosing)?
A: 391 ng/mL

Q: What about the concentration at 12 h ([2]; male, human, plasma, 100 mg oral solution of [14C]eplerenone, 12.0 hours after dosing) of the same molecule?
A: 149 ng/mL

Q: What about the concentration at 16 h ([2]; male, human, plasma, 100 mg oral solution of [14C]eplerenone, 16.0 hours after dosing) of the same molecule?
A: 68 ng/mL

Q: What about the concentration at 24 h ([2]; male, human, plasma, 100 mg oral solution of [14C]eplerenone, 24.0 hours after dosing) of the same molecule?
A: 17.3 ng/mL

Q: What about the concentration at 36 h ([2]; male, human, plasma, 100 mg oral solution of [14C]eplerenone, 36.0 hours after dosing) of the same molecule?
A: 0 ng/mL

Q: What about the concentration at 48 h ([2]; male, human, plasma, 100 mg oral solution of [14C]eplerenone, 48.0 hours after dosing) of the same molecule?
A: 0 ng/mL

Q: What about the concentration at 72 h ([2]; male, human, plasma, 100 mg oral solution of [14C]eplerenone, 72.0 hours after dosing) of the same molecule?
A: 0 ng/mL

Q: And the concentration at 96 h ([2]; male, human, plasma, 100 mg oral solution of [14C]eplerenone, 96.0 hours after dosing)?
A: 0 ng/mL

Q: And the concentration at -0.5 h ([2]; male, human, plasma, 100 mg oral solution of [14C]eplerenone, −0.5 hours after dosing)?
A: 0 ng/mL

Q: What about the Cmax [2, 6] of the same molecule?
A: 1720 ng/mL

Q: And the half-life [2, 6]?
A: 3.8 h

Q: And the AUC(0-t) ([2]; male, human, plasma, 100 mg eplerenone oral solution, single dose, read-out: AUC(0-96))?
A: 9540 ng·h/mL

Q: And the MRT ([2]; male, human, plasma, 100 mg eplerenone oral solution, single dose, read-out: Mean Residence Time)?
A: 4.8 h

Q: And the Tmax ([2]; male, human, plasma, 100 mg eplerenone oral solution, single dose, read-out: Tmax)?
A: 1.3 h

Q: And the “Oral Clearance” value ([2]; plasma, 100 mg eplerenone oral solution, single dose)?
A: 11.4 L/h

Q: And the “share of urinary and fecal radioactivity due to eplerenone” value [3, 7]?
A: less than 15%

Q: And the “urinary radioactivity excreted within the first 24 hours” value [3, 7]?
A: Over 90%

Q: And the “dose excreted as total radioactivity in feces” value [3, 8]?
A: 32.0%

Q: What about the “dose excreted as total radioactivity in urine” value [3, 8] of the same molecule?
A: 66.6%

Q: What about the “dose excreted in feces as the named form” value [3, 8] of the same molecule?
A: 0.807%

Q: What about the “dose excreted in urine as the named form” value [3, 8] of the same molecule?
A: 1.65%

Q: What about the “total radioactivity in the breath” value ([3]; any time point, any subject) of the same molecule?
A: no detectable concentrations
